# Source: the NIST ThermoML archive (doi:10.1021/je800110r)
# Numbers after ± are expanded uncertainties.
# Conditions: Liquid, Vibrating tube method
smiles,measurement,setting,value
CCCCCCCCCC [decane],mass density,"303.15 K, 32305 kPa",745.4 ± 2.1 kg/m3
same,mass density,"303.15 K, 32325 kPa",745.3 ± 2.1 kg/m3
same,mass density,"303.15 K, 32357 kPa",745.5 ± 2.1 kg/m3
same,mass density,"303.15 K, 32384 kPa",745.5 ± 2.1 kg/m3
same,mass density,"303.15 K, 32413 kPa",745.5 ± 2.1 kg/m3
same,mass density,"303.15 K, 32436 kPa",745.5 ± 2.1 kg/m3
same,mass density,"303.15 K, 32459 kPa",745.5 ± 2.1 kg/m3
same,mass density,"303.15 K, 32482 kPa",745.5 ± 2.1 kg/m3
same,mass density,"303.15 K, 32502 kPa",745.6 ± 2.1 kg/m3
same,mass density,"303.15 K, 32522 kPa",745.4 ± 2.1 kg/m3
same,mass density,"303.15 K, 32543 kPa",745.6 ± 2.1 kg/m3
same,mass density,"303.15 K, 32563 kPa",745.6 ± 2.1 kg/m3
same,mass density,"303.15 K, 32588 kPa",745.6 ± 2.1 kg/m3
same,mass density,"303.15 K, 32611 kPa",745.7 ± 2.1 kg/m3
same,mass density,"303.15 K, 32637 kPa",745.6 ± 2.1 kg/m3
same,mass density,"303.15 K, 32667 kPa",745.7 ± 2.1 kg/m3
same,mass density,"303.15 K, 32691 kPa",745.7 ± 2.1 kg/m3
same,mass density,"303.15 K, 32718 kPa",745.7 ± 2.1 kg/m3
same,mass density,"303.15 K, 32741 kPa",745.7 ± 2.1 kg/m3
same,mass density,"303.15 K, 32758 kPa",745.8 ± 2.1 kg/m3
same,mass density,"303.15 K, 32788 kPa",745.8 ± 2.1 kg/m3
same,mass density,"303.15 K, 32812 kPa",745.8 ± 2.1 kg/m3
same,mass density,"303.15 K, 32840 kPa",745.9 ± 2.1 kg/m3
same,mass density,"303.15 K, 32864 kPa",745.9 ± 2.1 kg/m3
same,mass density,"303.15 K, 32892 kPa",745.8 ± 2.1 kg/m3
same,mass density,"303.15 K, 32923 kPa",745.8 ± 2.1 kg/m3
same,mass density,"303.15 K, 32943 kPa",745.9 ± 2.1 kg/m3
same,mass density,"303.15 K, 32971 kPa",745.9 ± 2.1 kg/m3
same,mass density,"303.15 K, 32989 kPa",745.9 ± 2.1 kg/m3
same,mass density,"303.15 K, 33010 kPa",745.9 ± 2.1 kg/m3
same,mass density,"303.15 K, 33031 kPa",746 ± 2.1 kg/m3
same,mass density,"303.15 K, 33062 kPa",746 ± 2.1 kg/m3
same,mass density,"303.15 K, 33093 kPa",746 ± 2.1 kg/m3
same,mass density,"303.15 K, 33114 kPa",746 ± 2.1 kg/m3
same,mass density,"303.15 K, 33138 kPa",746.1 ± 2.1 kg/m3
same,mass density,"303.15 K, 33163 kPa",746 ± 2.1 kg/m3
same,mass density,"303.15 K, 33184 kPa",746 ± 2.1 kg/m3
same,mass density,"303.15 K, 33212 kPa",746.1 ± 2.1 kg/m3
same,mass density,"303.15 K, 33230 kPa",746.1 ± 2.1 kg/m3
same,mass density,"303.15 K, 33258 kPa",746.1 ± 2.1 kg/m3
same,mass density,"303.15 K, 33286 kPa",746 ± 2.1 kg/m3
same,mass density,"303.15 K, 33314 kPa",746.1 ± 2.1 kg/m3
same,mass density,"303.15 K, 33339 kPa",746.1 ± 2.1 kg/m3
same,mass density,"303.15 K, 33364 kPa",746 ± 2.1 kg/m3
same,mass density,"303.15 K, 33389 kPa",746.1 ± 2.1 kg/m3
same,mass density,"303.15 K, 33424 kPa",746.1 ± 2.1 kg/m3
same,mass density,"303.15 K, 33458 kPa",746.1 ± 2.1 kg/m3
same,mass density,"303.15 K, 33487 kPa",746.2 ± 2.1 kg/m3
same,mass density,"303.15 K, 33512 kPa",746.2 ± 2.1 kg/m3
same,mass density,"303.15 K, 33545 kPa",746.2 ± 2.1 kg/m3
same,mass density,"303.15 K, 33566 kPa",746.3 ± 2.1 kg/m3
same,mass density,"303.15 K, 33588 kPa",746.3 ± 2.1 kg/m3
same,mass density,"303.15 K, 33621 kPa",746.3 ± 2.1 kg/m3
same,mass density,"303.15 K, 33642 kPa",746.3 ± 2.1 kg/m3
same,mass density,"303.15 K, 33676 kPa",746.4 ± 2.1 kg/m3
same,mass density,"303.15 K, 33697 kPa",746.3 ± 2.1 kg/m3
same,mass density,"303.15 K, 33719 kPa",746.4 ± 2.1 kg/m3
same,mass density,"303.15 K, 33741 kPa",746.4 ± 2.1 kg/m3
same,mass density,"303.15 K, 33764 kPa",746.3 ± 2.1 kg/m3
same,mass density,"303.15 K, 33790 kPa",746.4 ± 2.1 kg/m3
same,mass density,"303.15 K, 33816 kPa",746.4 ± 2.1 kg/m3
same,mass density,"303.15 K, 33848 kPa",746.4 ± 2.1 kg/m3
same,mass density,"303.15 K, 33871 kPa",746.4 ± 2.1 kg/m3
same,mass density,"303.15 K, 33904 kPa",746.4 ± 2.1 kg/m3
same,mass density,"303.15 K, 33923 kPa",746.4 ± 2.1 kg/m3
same,mass density,"303.15 K, 33961 kPa",746.4 ± 2.1 kg/m3
same,mass density,"303.15 K, 33984 kPa",746.6 ± 2.1 kg/m3
same,mass density,"303.15 K, 34018 kPa",746.6 ± 2.1 kg/m3
same,mass density,"303.15 K, 34044 kPa",746.5 ± 2.1 kg/m3
same,mass density,"303.15 K, 34068 kPa",746.5 ± 2.1 kg/m3
same,mass density,"303.15 K, 34100 kPa",746.6 ± 2.1 kg/m3
same,mass density,"303.15 K, 34124 kPa",746.5 ± 2.1 kg/m3
same,mass density,"303.15 K, 34151 kPa",746.6 ± 2.1 kg/m3
same,mass density,"303.15 K, 34180 kPa",746.5 ± 2.1 kg/m3
same,mass density,"303.15 K, 34218 kPa",746.6 ± 2.1 kg/m3
same,mass density,"303.15 K, 34247 kPa",746.6 ± 2.1 kg/m3
same,mass density,"303.15 K, 34265 kPa",746.8 ± 2.1 kg/m3
same,mass density,"303.15 K, 34284 kPa",746.8 ± 2.1 kg/m3
same,mass density,"303.15 K, 34306 kPa",746.8 ± 2.1 kg/m3
same,mass density,"303.15 K, 34332 kPa",746.7 ± 2.1 kg/m3
same,mass density,"303.15 K, 34354 kPa",746.7 ± 2.1 kg/m3
same,mass density,"303.15 K, 34372 kPa",746.8 ± 2.1 kg/m3
same,mass density,"303.15 K, 34395 kPa",746.7 ± 2.1 kg/m3
same,mass density,"303.15 K, 34422 kPa",746.8 ± 2.1 kg/m3
same,mass density,"303.15 K, 34443 kPa",746.9 ± 2.1 kg/m3
same,mass density,"303.15 K, 34449 kPa",746.8 ± 2.1 kg/m3
same,mass density,"303.16 K, 4203 kPa",725.7 ± 2 kg/m3
same,mass density,"303.16 K, 4220 kPa",725.6 ± 2 kg/m3
same,mass density,"303.16 K, 4238 kPa",725.7 ± 2 kg/m3
same,mass density,"303.16 K, 4251 kPa",725.8 ± 2 kg/m3
same,mass density,"303.16 K, 4264 kPa",725.7 ± 2 kg/m3
same,mass density,"303.16 K, 4275 kPa",725.6 ± 2 kg/m3
same,mass density,"303.16 K, 4290 kPa",725.8 ± 2 kg/m3
same,mass density,"303.16 K, 4305 kPa",725.8 ± 2 kg/m3
same,mass density,"303.16 K, 4325 kPa",725.8 ± 2 kg/m3
same,mass density,"303.16 K, 4341 kPa",725.8 ± 2 kg/m3
same,mass density,"303.16 K, 4354 kPa",725.8 ± 2 kg/m3
same,mass density,"303.16 K, 4367 kPa",725.9 ± 2 kg/m3
same,mass density,"303.16 K, 4380 kPa",725.8 ± 2 kg/m3
same,mass density,"303.16 K, 4395 kPa",725.9 ± 2 kg/m3
same,mass density,"303.16 K, 4407 kPa",725.9 ± 2 kg/m3
same,mass density,"303.16 K, 4422 kPa",725.8 ± 2 kg/m3
same,mass density,"303.16 K, 4433 kPa",725.9 ± 2 kg/m3
same,mass density,"303.16 K, 4451 kPa",725.9 ± 2 kg/m3
same,mass density,"303.16 K, 4466 kPa",725.8 ± 2 kg/m3
same,mass density,"303.16 K, 4480 kPa",725.9 ± 2 kg/m3
same,mass density,"303.16 K, 4496 kPa",726 ± 2 kg/m3
same,mass density,"303.16 K, 4508 kPa",726 ± 2 kg/m3
same,mass density,"303.16 K, 4521 kPa",725.9 ± 2 kg/m3
same,mass density,"303.16 K, 4534 kPa",725.9 ± 2 kg/m3
same,mass density,"303.16 K, 4547 kPa",726 ± 2 kg/m3
same,mass density,"303.16 K, 4563 kPa",726 ± 2 kg/m3
same,mass density,"303.16 K, 4577 kPa",726.1 ± 2 kg/m3
same,mass density,"303.16 K, 4593 kPa",726 ± 2 kg/m3
same,mass density,"303.16 K, 4606 kPa",726 ± 2 kg/m3
same,mass density,"303.16 K, 4625 kPa",726 ± 2 kg/m3
same,mass density,"303.16 K, 4643 kPa",726 ± 2 kg/m3
same,mass density,"303.16 K, 4656 kPa",726.1 ± 2 kg/m3
same,mass density,"303.16 K, 4675 kPa",726.1 ± 2 kg/m3
same,mass density,"303.16 K, 4693 kPa",726.1 ± 2 kg/m3
same,mass density,"303.16 K, 4708 kPa",726.1 ± 2 kg/m3
same,mass density,"303.16 K, 4723 kPa",726.1 ± 2 kg/m3
same,mass density,"303.16 K, 4736 kPa",726.2 ± 2 kg/m3
same,mass density,"303.16 K, 4754 kPa",726.1 ± 2 kg/m3
same,mass density,"303.16 K, 4774 kPa",726.2 ± 2 kg/m3
same,mass density,"303.16 K, 4788 kPa",726.2 ± 2 kg/m3
same,mass density,"303.16 K, 4802 kPa",726.1 ± 2 kg/m3
same,mass density,"303.16 K, 4819 kPa",726.2 ± 2 kg/m3
same,mass density,"303.16 K, 4835 kPa",726.2 ± 2 kg/m3
same,mass density,"303.16 K, 4846 kPa",726.2 ± 2 kg/m3
same,mass density,"303.16 K, 4858 kPa",726.3 ± 2 kg/m3
same,mass density,"303.16 K, 4870 kPa",726.2 ± 2 kg/m3
same,mass density,"303.16 K, 4881 kPa",726.1 ± 2 kg/m3
same,mass density,"303.16 K, 4893 kPa",726.1 ± 2 kg/m3
same,mass density,"303.16 K, 4904 kPa",726.2 ± 2 kg/m3
same,mass density,"303.16 K, 4918 kPa",726.3 ± 2 kg/m3
same,mass density,"303.16 K, 4931 kPa",726.3 ± 2 kg/m3
